The text below walks through data of publication PMC5500991, “Substituted arylsulphonamides as inhibitors of perforin-mediated lysis” (European Journal of Medicinal Chemistry, 2017).

Structures are written as SMILES.

Series [1] deals with T1, perforin delivered by KHYG1 NK cells (Homo sapiens, UniProt P14222).
T1 construct: The use of whole NK cells to deliver perforin provides a more realistic model of conditions in vivo; endogenous in cells; host or cells: KHYG1 human NK cells (effector); K562 leukemia target cells
T1 sequence (P14222 22-555): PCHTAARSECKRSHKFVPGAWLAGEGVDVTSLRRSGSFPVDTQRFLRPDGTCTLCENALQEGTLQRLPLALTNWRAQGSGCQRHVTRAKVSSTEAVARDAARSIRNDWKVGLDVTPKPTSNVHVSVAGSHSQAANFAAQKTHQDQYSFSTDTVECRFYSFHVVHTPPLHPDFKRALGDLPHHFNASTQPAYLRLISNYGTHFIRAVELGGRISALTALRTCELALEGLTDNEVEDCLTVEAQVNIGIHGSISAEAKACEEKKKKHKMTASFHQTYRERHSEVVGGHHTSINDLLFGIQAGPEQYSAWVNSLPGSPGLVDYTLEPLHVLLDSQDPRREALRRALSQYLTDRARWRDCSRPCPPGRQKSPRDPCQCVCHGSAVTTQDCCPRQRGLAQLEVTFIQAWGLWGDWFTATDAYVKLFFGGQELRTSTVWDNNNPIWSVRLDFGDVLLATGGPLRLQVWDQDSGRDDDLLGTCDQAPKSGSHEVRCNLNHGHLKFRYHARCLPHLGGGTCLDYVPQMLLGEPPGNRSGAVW
Put plainly: KHYG1 inhibitory assay: lysis of 51Cr-labelled K562 target cells by KHYG1 NK cells. Format: cell-based. Conditions: 51Cr-labelled K562 target cells co-incubated with KHYG1 human NK cells, vs untreated control, n = 4. On the procedure: The inhibitory function is then determined by identifying the number of untreated or inhibitor treated effector cells required to kill the same number of targets.

Series [2] is described as follows: Toxicity to KHYG1 NK cells (Trypan blue exclusion). The format is cell-based, human. Conditions: human, viability of KHYG1 NK cells after 24 h, n = 3. Here is the method: The toxicity assay was carried out in exactly the same manner as the killing assay above, but instead of adding the labelled K562 target cells, 100 μL of RPMI 0.1% BSA was added. Cells were incubated for 4 h at 37 °C and then washed ×3 in RPMI + 0.1% BSA. […] Trypan blue was added to each well. Viable (clear) cells and total (clear + blue) cells were counted, and the percentage of viable cells was calculated compared to DMSO treated cell control (% viability).

The nature of series [3]: Solubility of the sodium salt in water. Format: physicochemical. Conditions: sodium salt in water at room temperature. Here is the method:
The compound was dissolved in water until it was no longer soluble in order to achieve a supersaturated concentration. The suspensions were sonicated for 15 min. prior to centrifugation at 13,000 revolutions per minute (rpm) for 6 minutes. Supernatants were removed and then recentrifuged prior to dilution of at least two fold in water to avoid precipitation during HPLC analysis.

Consider `Cc1ccc(S(=O)(=O)Nc2ccccn2)cc1-c1ccc(-c2ccc3c(c2)CN(C)C3=O)s1` [Compound 16, Sodium (4-methyl-3-(5-(2-methyl-1-oxoisoindolin-5-yl)thiophen-2-yl)phenylsulfonyl)(pyridin-2-yl)amide], for which, in series [1], the inhibition at 10 µM was 0%. The viability at 24 h, 10 µM in series [2] was found to be 96.1 ± 6%. For the compound `CN1Cc2cc(-c3ccc(-c4cc(NS(=O)(=O)c5ccccn5)ccc4F)s3)ccc2C1=O` [Compound 17, N-{4-Fluoro-3-[5-(2-methyl-1-oxo-2,3-dihydro-1H-isoindol-5-yl)-2-thienyl]phenyl}-2-pyridinesulfonamide], the inhibition at 10 µM in series [1] is 0%. The compound further registered a viability at 24 h, 10 µM in series [2] of 91.4 ± 6.5%.

For the compound `CN1Cc2cc(-c3ccc(-c4cnc(F)c(NS(=O)(=O)c5ccccn5)c4)s3)ccc2C1=O` [Compound 20, N-(2-Fluoro-5-(5-(2-methyl-1-oxoisoindolin-5-yl)thiophen-2-yl)pyridin-3-yl)pyridine-2-sulfonamide], the Solubility entry in series [3] is “significantly improved”.

On to `CN1Cc2cc(-c3ccc(-c4cncc(NS(=O)(=O)c5ccc(C(F)(F)F)cc5)c4)s3)ccc2C1=O` [Compound 46, N-(5-(5-(2-Methyl-1-oxoisoindolin-5-yl)thiophen-2-yl)pyridin-3-yl)-4-(trifluoromethyl)benzenesulfonamide], for which the melting point lay in the range of 282 to 284 °C. `CN1Cc2cc(-c3ccc(-c4cncc(NS(=O)(=O)c5cc(C(F)(F)F)cc(C(F)(F)F)c5)c4)s3)ccc2C1=O` [Compound 47, N-(5-(5-(2-Methyl-1-oxoisoindolin-5-yl)thiophen-2-yl)pyridin-3-yl)-3,5-bis(trifluoromethyl)benzenesulphonamide] came in with a melting point of 299 to 302 °C. Besides, the inhibition at 10 µM in series [1] came out at 0%. In series [2], the viability at 24 h, 10 µM came to 90.2 ± 3.4%.

With `CN1Cc2cc(-c3ccc(-c4cncc(NS(=O)(=O)c5ccccc5C#N)c4)s3)ccc2C1=O` [Compound 48, 2-Cyano-N-(5-(5-(2-methyl-1-oxoisoindolin-5-yl)thiophen-2-yl)pyridin-3-yl)benzenesulfonamide], the melting point was > 310 °C. The compound `COC(=O)c1ccccc1S(=O)(=O)Nc1cncc(-c2ccc(-c3ccc4c(c3)CN(C)C4=O)s2)c1` [Compound 51, Methyl 2-(N-(5-(5-(2-methyl-1-oxoisoindolin-5-yl)thiophen-2-yl)pyridin-3-yl)sulfamoyl)benzoate] showed a melting point of 209 to 212 °C. In turn, `COC(=O)c1cccc(S(=O)(=O)Nc2cncc(-c3ccc(-c4ccc5c(c4)CN(C)C5=O)s3)c2)c1` [Compound 52, Methyl 3-(N-(5-(5-(2-methyl-1-oxoisoindolin-5-yl)thiophen-2-yl)pyridin-3-yl)sulfamoyl)benzoate] showed a melting point of 250 to 254 °C.

`COC(=O)c1ccc(S(=O)(=O)Nc2cncc(-c3ccc(-c4ccc5c(c4)CN(C)C5=O)s3)c2)cc1` [Compound 53, Methyl 4-(N-(5-(5-(2-methyl-1-oxoisoindolin-5-yl)thiophen-2-yl)pyridin-3-yl)sulfamoyl)benzoate] displayed a melting point of 269 to 272 °C.

Compound `CCOC(=O)c1ccc(S(=O)(=O)Nc2cncc(-c3ccc(-c4ccc5c(c4)CN(C)C5=O)s3)c2)cc1` [Compound 54, Ethyl 4-(N-(5-(5-(2-methyl-1-oxoisoindolin-5-yl)thiophen-2-yl)pyridin-3-yl)sulfamoyl)benzoate] registered a melting point of 272 to 275 °C. The compound `CN1Cc2cc(-c3ccc(-c4cncc(NS(=O)(=O)c5ccccc5S(C)(=O)=O)c4)s3)ccc2C1=O` [Compound 56, N-(5-(5-(2-Methyl-1-oxoisoindolin-5-yl)thiophen-2-yl)pyridin-3-yl)-2-(methylsulfonyl)benzenesulfonamide] yielded a melting point of 269 to 272 °C. Regarding `CN1Cc2cc(-c3ccc(-c4cncc(NS(=O)(=O)c5ccc(S(C)(=O)=O)cc5)c4)s3)ccc2C1=O` [Compound 57, Sodium (5-(5-(2-methyl-1-oxoisoindolin-5-yl)thiophen-2-yl)pyridin-3-yl)((4-(methylsulfonyl)phenyl)sulfonyl)amide], in series [1], the inhibition at 10 µM came out at 0%. In addition, the viability at 24 h, 10 µM in series [2] was 90 ± 7.8%. As to `CN1Cc2cc(-c3ccc(-c4cncc(NS(=O)(=O)c5cccc(Cl)c5F)c4)s3)ccc2C1=O` [Compound 60, 3-Chloro-2-fluoro-N-(5-(5-(2-methyl-1-oxoisoindolin-5-yl)thiophen-2-yl)pyridin-3-yl)benzenesulfonamide], the melting point fell in the range of 269 to 272 °C. Compound `Cc1cc(F)ccc1S(=O)(=O)Nc1cncc(-c2ccc(-c3ccc4c(c3)CN(C)C4=O)s2)c1` [Compound 61, 4-Fluoro-2-methyl-N-(5-(5-(2-methyl-1-oxoisoindolin-5-yl)thiophen-2-yl)pyridin-3-yl) benzenesulphonamide] registered a melting point of 280 to 283 °C. Take `Cc1ccc(S(=O)(=O)Nc2cncc(-c3ccc(-c4ccc5c(c4)CN(C)C5=O)s3)c2)cc1Cl` [Compound 63, 3-Chloro-4-methyl-N-(5-(5-(2-methyl-1-oxoisoindolin-5-yl)thiophen-2-yl)pyridin-3-yl)benzenesulfonamide]: the melting point fell in the range of 277 to 279 °C. On the same count and under the same terms, the value for `CN1Cc2cc(-c3ccc(-c4cncc(NS(=O)(=O)c5ccc(C(F)(F)F)cc5Cl)c4)s3)ccc2C1=O` [Compound 64, 2-Chloro-N-(5-(5-(2-methyl-1-oxoisoindolin-5-yl)thiophen-2-yl)pyridin-3-yl)-4-(trifluoromethyl)benzenesulfonamide] was 292 to 295 °C.

Consider `CN1Cc2cc(-c3ccc(-c4cncc(NS(=O)(=O)c5cc(Br)cc(C(F)(F)F)c5)c4)s3)ccc2C1=O` [Compound 65, 3-Bromo-N-(5-(5-(2-methyl-1-oxoisoindolin-5-yl)thiophen-2-yl)pyridin-3-yl)-5-(trifluoromethyl)benzenesulphonamide], for which the melting point is 280 to 283 °C. Regarding `CN1Cc2cc(-c3ccc(-c4cncc(NS(=O)(=O)c5ccccn5)c4)s3)ccc2C1=O` [Compound 66, N-(5-(5-(2-Methyl-1-oxoisoindolin-5-yl)thiophen-2-yl)pyridin-3-yl)pyridine-2-sulfonamide], the melting point lay within 272 to 275 °C.

The compound `CN1Cc2cc(-c3ccc(-c4cncc(NS(=O)(=O)c5cccnc5)c4)s3)ccc2C1=O` [Compound 67, N-(5-(5-(2-Methyl-1-oxoisoindolin-5-yl)thiophen-2-yl)pyridin-3-yl)pyridine-3-sulfonamide] displayed a melting point of 283 to 286 °C.

In turn, `CN1Cc2cc(-c3ccc(-c4cncc(NS(=O)(=O)c5cccs5)c4)s3)ccc2C1=O` [Compound 68, N-(5-(5-(2-Methyl-1-oxoisoindolin-5-yl)thiophen-2-yl)pyridin-3-yl)thiophene-2-sulfonamide] yielded a melting point of 300 to 304 °C.

For `CN1Cc2cc(-c3ccc(-c4cncc(NS(=O)(=O)c5ccsc5)c4)s3)ccc2C1=O` [Compound 69, N-(5-(5-(2-Methyl-1-oxoisoindolin-5-yl)thiophen-2-yl)pyridin-3-yl)thiophene-3-sulfonamide], the melting point was > 300 °C. Same read-out and setting: with `CN1Cc2cc(-c3ccc(-c4cncc(NS(=O)(=O)c5ccc(-c6cnco6)cc5)c4)s3)ccc2C1=O` [Compound 70, N-(5-(5-(2-Methyl-1-oxoisoindolin-5-yl)thiophen-2-yl)pyridin-3-yl)-4-(oxazol-5-yl)benzenesulfonamides] the figure was 278 to 281 °C; with `CN1Cc2cc(-c3ccc(-c4cncc(NS(=O)(=O)c5ccc(-c6ccno6)s5)c4)s3)ccc2C1=O` [Compound 71, 5-(Isoxazol-5-yl)-N-(5-(5-(2-methyl-1-oxoisoindolin-5-yl)thiophen-2-yl)pyridin-3-yl)thiophene-2-sulfonamide], 245 to 249 °C; with `Cc1cc(C)n(-c2ccc(S(=O)(=O)Nc3cncc(-c4ccc(-c5ccc6c(c5)CN(C)C6=O)s4)c3)cc2)n1` [Compound 72, 4-(3,5-Dimethyl-1H-pyrazol-1-yl)-N-(5-(5-(2-methyl-1-oxoisoindolin-5-yl)thiophen-2-yl)pyridin-3-yl)benzenesulfonamide], 265 to 268 °C. For the compound `Cc1ncsc1S(=O)(=O)Nc1cncc(-c2ccc(-c3ccc4c(c3)CN(C)C4=O)s2)c1` [Compound 74, 4-Methyl-N-(5-(5-(2-methyl-1-oxoisoindolin-5-yl)thiophen-2-yl)pyridin-3-yl)thiazole-5-sulphonamide], the melting point lay within 277 to 280 °C.
